{
  "source": "paper PMC7174661",
  "about": "“Patch-Clamp Analysis of the Mitochondrial H^+ Leak in Brown and Beige Fat” (Frontiers in Physiology, 2020)",
  "molecular_target": "T1, UCP1 (Mus musculus, UniProt P12242)",
  "T1 construct": "native full-length protein in the inner mitochondrial membrane; mitoplasts from brown (or beige) fat; no tags",
  "T1 sequence (P12242 1-307)": "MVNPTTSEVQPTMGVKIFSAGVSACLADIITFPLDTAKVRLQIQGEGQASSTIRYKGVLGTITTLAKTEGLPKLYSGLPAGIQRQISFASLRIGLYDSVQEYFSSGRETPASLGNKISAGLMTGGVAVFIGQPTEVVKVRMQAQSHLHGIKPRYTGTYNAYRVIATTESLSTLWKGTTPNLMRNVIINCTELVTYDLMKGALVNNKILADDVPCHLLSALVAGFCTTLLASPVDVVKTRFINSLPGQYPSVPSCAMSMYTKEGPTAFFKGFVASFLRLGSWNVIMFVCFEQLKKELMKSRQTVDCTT",
  "experiment": "whole-mitoplast patch-clamp, inhibition of H+ current",
  "assay_type": "biochemical",
  "details": "Mg2+-free ATP, cytosolic side; current activated by 0.2 mM oleic acid / 10 mM MβCD; symmetrical pH 7.0; competitive with fatty acid; figure reproduced from the same laboratory's Fedorenko et al. 2012",
  "data": [
    {"smiles": "Nc1ncnc2c1ncn2[C@@H]1O[C@H](COP(=O)(O)OP(=O)(O)OP(=O)(O)O)[C@@H](O)[C@H]1O", "note": "[ATP]", "values": [
      {"measurement": "IC50", "result": "2.1 ± 0.1", "unit": "µM"}
    ]}
  ]
}
